Source: patent US6525178B2, “PGC-1, a novel brown fat PPARgamma coactivator” (Dana-Farber Cancer Institute, priority 1997, dated 2003)
One block for each molecule: values may come before it.

Columns and labels:
[1] = target: T1, retinoic acid receptor (Homo sapiens, UniProt P10276); experiment: In vitro binding of GST-PGC-1 to in vitro-translated nuclear receptor; conditions: ligand 1 μM
T1 sequence (P10276 1-462): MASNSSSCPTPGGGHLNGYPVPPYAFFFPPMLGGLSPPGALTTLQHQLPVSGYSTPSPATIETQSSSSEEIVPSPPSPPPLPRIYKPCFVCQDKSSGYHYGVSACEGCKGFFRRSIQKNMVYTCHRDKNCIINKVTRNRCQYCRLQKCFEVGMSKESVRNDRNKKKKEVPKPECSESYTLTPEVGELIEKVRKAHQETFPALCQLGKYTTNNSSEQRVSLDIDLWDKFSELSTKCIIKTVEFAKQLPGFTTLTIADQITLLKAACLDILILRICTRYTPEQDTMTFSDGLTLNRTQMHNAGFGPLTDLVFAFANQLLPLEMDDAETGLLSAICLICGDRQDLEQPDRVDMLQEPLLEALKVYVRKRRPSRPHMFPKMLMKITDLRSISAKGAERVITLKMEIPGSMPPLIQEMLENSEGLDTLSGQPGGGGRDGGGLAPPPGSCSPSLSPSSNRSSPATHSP
T1 sequence (O70343 36-797 partner limits assumed): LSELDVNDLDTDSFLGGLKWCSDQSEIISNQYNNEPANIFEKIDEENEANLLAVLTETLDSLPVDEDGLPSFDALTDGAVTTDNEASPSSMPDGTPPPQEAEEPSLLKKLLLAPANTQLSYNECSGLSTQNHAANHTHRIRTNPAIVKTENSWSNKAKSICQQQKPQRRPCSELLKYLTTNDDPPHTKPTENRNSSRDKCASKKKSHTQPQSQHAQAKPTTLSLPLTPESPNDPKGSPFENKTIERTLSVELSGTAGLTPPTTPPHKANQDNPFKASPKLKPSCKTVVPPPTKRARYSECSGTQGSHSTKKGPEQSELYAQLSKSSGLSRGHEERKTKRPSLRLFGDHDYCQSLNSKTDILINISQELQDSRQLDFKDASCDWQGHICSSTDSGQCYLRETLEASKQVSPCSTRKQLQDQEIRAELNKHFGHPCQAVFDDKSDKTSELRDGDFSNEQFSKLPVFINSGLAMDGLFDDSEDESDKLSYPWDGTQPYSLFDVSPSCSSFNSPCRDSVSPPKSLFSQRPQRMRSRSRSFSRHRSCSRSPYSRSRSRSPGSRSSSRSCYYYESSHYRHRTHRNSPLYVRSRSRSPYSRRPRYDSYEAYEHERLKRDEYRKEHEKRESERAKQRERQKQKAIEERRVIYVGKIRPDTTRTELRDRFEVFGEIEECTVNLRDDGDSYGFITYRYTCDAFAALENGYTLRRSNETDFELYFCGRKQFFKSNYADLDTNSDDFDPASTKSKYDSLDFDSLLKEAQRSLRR

[2] = target: T2, PPARδ (Homo sapiens, UniProt Q03181); experiment: as above; conditions: ligand 1 μM
T2 construct: made in house; host or cells: receptor: reticulocyte lysate in vitro translation (Promega TNT); GST-PGC-1: E. coli
T2 sequence (Q03181 1-441): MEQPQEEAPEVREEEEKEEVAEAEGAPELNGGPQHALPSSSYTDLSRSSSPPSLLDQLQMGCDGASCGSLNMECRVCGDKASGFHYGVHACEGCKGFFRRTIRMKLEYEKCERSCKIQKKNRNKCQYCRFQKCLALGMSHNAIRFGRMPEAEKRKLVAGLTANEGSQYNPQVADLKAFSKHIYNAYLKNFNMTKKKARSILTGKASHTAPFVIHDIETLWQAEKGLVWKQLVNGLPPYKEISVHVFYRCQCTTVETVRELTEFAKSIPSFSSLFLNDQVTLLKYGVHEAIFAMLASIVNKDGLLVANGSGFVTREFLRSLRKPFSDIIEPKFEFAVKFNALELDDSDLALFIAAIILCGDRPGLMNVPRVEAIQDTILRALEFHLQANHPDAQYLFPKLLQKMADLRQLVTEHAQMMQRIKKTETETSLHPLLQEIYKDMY
T2 sequence (O70343 36-797 partner limits assumed): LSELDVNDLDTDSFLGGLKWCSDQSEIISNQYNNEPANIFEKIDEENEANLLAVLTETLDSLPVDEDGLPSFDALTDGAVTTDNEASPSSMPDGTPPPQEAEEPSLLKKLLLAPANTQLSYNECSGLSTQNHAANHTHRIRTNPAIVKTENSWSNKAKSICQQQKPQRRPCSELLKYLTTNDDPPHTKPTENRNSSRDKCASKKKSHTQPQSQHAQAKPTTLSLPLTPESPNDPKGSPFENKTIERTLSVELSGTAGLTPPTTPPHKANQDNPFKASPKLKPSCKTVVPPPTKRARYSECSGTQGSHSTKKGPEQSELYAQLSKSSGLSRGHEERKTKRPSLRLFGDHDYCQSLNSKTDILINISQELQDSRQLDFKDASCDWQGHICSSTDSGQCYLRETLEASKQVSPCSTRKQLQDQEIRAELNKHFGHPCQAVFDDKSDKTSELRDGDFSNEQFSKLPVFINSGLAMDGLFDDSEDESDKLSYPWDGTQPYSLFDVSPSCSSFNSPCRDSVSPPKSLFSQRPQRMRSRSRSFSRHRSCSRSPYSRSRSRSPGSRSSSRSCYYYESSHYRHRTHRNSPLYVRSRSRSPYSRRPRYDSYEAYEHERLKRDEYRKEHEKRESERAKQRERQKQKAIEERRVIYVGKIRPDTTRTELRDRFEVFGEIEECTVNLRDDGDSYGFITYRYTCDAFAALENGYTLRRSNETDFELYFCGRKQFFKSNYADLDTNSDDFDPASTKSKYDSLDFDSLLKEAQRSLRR
Protocol: (§1) The assays were carried out as follows.

[3] = system: HIB 1B brown fat cells; experiment: Northern analysis of PGC-1 and UCP-1 mRNA in treated HIB 1B brown fat cells; assay type: cell-based, mouse; conditions: HIB 1B cells, 1 μM, 10 hr
Description: Cold is sensed in the central nervous system and results in increased sympathetic output to peripheral tissues, including muscle and brown fat Himms-Hagen (1989) Can. J. Physiol Pharmcol. 67:394-401). Cold exposure can be mimicked, in terms of brown adipocyte precursor cell growth and the induction of UCP-1, by exposure of cultured brown fat cells to β-adrenergic agonists (Rehnmark et al. (1990) J. Biol. Chem. 25:16464-16471). To determine if PGC-1 gene expression is also sensitive to β-adrenergic agonists, HIB 1B brown fat cells were treated with isoproterenol (1 μM), a nonsubtype selective β agonist, for 10 hr. Total cellular RNA was isolated and analyzed using PGC-1 and UCP-1 cDNA probes.
Briefly, HIB 1B brown fat preadipocytes were differentiated as described herein. After 6 days, cells were approximately 80% differentiated.

[4] = target: T3, PPARα (Homo sapiens, UniProt Q07869); experiment: In vitro binding of GST-PGC-1 to in vitro-translated nuclear receptor; conditions: ligand 1 μM
T3 construct: made in house; host or cells: receptor: reticulocyte lysate in vitro translation (Promega TNT); GST-PGC-1: E. coli
T3 sequence (Q07869 1-468): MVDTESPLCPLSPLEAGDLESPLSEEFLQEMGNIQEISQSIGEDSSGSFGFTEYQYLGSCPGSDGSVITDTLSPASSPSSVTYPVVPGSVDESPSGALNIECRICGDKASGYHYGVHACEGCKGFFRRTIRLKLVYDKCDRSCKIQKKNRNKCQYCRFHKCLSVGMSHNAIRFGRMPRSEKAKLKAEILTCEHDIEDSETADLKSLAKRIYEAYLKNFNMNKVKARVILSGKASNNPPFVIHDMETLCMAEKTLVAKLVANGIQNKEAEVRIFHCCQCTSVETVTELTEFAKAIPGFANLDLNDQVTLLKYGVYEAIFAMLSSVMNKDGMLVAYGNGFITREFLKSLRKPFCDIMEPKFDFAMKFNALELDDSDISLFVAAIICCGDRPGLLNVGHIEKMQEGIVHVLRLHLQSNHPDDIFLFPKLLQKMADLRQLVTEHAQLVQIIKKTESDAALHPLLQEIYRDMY
T3 sequence (O70343 36-797 partner limits assumed): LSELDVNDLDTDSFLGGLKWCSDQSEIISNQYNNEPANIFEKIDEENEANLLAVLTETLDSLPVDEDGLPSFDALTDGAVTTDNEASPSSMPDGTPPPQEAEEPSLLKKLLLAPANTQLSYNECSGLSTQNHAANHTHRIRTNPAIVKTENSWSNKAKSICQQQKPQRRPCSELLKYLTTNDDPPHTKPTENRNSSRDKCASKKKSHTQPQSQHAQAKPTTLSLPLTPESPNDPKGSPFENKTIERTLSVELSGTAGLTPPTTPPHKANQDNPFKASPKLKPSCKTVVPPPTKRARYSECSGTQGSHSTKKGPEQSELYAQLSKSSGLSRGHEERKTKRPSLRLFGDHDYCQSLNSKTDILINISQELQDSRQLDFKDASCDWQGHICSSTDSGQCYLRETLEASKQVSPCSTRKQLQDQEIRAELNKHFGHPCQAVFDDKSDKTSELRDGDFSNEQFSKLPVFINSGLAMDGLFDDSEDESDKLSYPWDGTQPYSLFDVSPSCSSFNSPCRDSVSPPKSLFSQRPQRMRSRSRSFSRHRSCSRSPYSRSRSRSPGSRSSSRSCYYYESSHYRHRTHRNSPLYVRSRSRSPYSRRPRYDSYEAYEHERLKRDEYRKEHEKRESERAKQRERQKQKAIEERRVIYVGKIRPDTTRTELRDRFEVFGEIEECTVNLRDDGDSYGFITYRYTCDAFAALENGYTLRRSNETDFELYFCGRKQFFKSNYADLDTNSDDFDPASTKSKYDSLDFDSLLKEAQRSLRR
Protocol: as §1

[5] = system: PPARγ; experiment: Binding of in vitro-translated PGC-1 C-terminal deletions to immobilized PPARγ fusion protein; set-up: species or system mouse; conditions: 35S-labelled PGC-1 deletions
Description: The interaction between nuclear receptors and certain coactivators such as SRC-1 or CBP is ligand dependent (Kamai et al. (1996) Cell 84:403-414) and involves an LXXLL (SEQ ID NO:3) motif in the coactivators and the C-terminal AF-2 domain in the receptors (Heery et al. (1997) Nature 387:733-736; Torchia et al. (1997) Nature 387:677-684). To identify the domains responsible for PGC-1-PPARγ interactions, different C-terminal deletions of PGC-1 were generated as reticulocyte translation products and mixed with a […] fusion protein. Deletions of PGC-1 were made using specific restriction sites in the PGC-1 cDNA closed in pBluescript. The following restriction enzymes were used for these deletions: full-length Xhol (aa-1-797), Haell (aa 1-675) Ncol (aa 1-503), Xbal (aa 1-403), Kpnl (aa 1-338), and Stul (aa 1-292). These were then translated into vitro with an [^35S]methionine-label. One microliter of each in vitro translation reaction was resolved by SDS-PAGE and autoradiographed.
FIG. 4 summarizes the input of both the full-length PGC-1(1-797) and the 1-675 deletion which bind to the immobilized PPARγ.

Chain of PPARγ (P37238 183-505 limits assumed): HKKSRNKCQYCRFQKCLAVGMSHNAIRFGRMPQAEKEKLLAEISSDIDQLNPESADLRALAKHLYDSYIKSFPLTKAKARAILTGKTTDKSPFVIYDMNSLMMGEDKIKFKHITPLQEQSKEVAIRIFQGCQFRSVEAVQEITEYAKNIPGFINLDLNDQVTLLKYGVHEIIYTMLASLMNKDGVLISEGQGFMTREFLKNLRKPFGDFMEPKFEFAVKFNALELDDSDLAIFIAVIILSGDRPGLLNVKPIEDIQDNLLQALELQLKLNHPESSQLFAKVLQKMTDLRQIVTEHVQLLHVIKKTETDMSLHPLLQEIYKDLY

Molecule: CC1=C(/C=C/C(C)=C/C=C/C(C)=C/C(=O)O)C(C)(C)CCC1 [all-trans retinoic acid]
- ligand dependency of PGC-1 interaction with the retinoic acid receptor [1]: strong ligand dependency

Molecule: CC(C)NCC(O)c1ccc(O)c(O)c1 (stereo not shown) [isoproterenol]
- PGC-1 mRNA [3]: sharp increase
- UCP-1 mRNA [3]: sharp increase

B1: PGC-1 1-292: C-terminal deletion of PGC-1, aa 1-292, still contains the LXXLL motif (protein)
chain: MAWDMCSQDSVWSDIECAALVGEDQPLCPDLPELDLSELDVNDLDTDSFLGGLKWCSDQSEIISNQYNNEPANIFEKIDEENEANLLAVLTETLDSLPVDEDGLPSFDALTDGAVTTDNEASPSSMPDGTPPPQEAEEPSLLKKLLLAPANTQLSYNECSGLSTQNHAANHTHRIRTNPAIVKTENSWSNKAKSICQQQKPQRRPCSELLKYLTTNDDPPHTKPTENRNSSRDKCASKKKSHTQPQSQHAQAKPTTLSLPLTPESPNDPKGSPFENKTIERTLSVELSGTAG
- percentage of input material that bound to PPARγ [5]: completely loses the ability to interact with PPARγ

B2: PGC-1 1-503: C-terminal deletion of PGC-1, aa 1-503, lacks the SR and RNA-binding domains (protein)
chain: MAWDMCSQDSVWSDIECAALVGEDQPLCPDLPELDLSELDVNDLDTDSFLGGLKWCSDQSEIISNQYNNEPANIFEKIDEENEANLLAVLTETLDSLPVDEDGLPSFDALTDGAVTTDNEASPSSMPDGTPPPQEAEEPSLLKKLLLAPANTQLSYNECSGLSTQNHAANHTHRIRTNPAIVKTENSWSNKAKSICQQQKPQRRPCSELLKYLTTNDDPPHTKPTENRNSSRDKCASKKKSHTQPQSQHAQAKPTTLSLPLTPESPNDPKGSPFENKTIERTLSVELSGTAGLTPPTTPPHKANQDNPFKASPKLKPSCKTVVPPPTKRARYSECSGTQGSHSTKKGPEQSELYAQLSKSSGLSRGHEERKTKRPSLRLFGDHDYCQSLNSKTDILINISQELQDSRQLDFKDASCDWQGHICSSTDSGQCYLRETLEASKQVSPCSTRKQLQDQEIRAELNKHFGHPCQAVFDDKSDKTSELRDGDFSNEQFSKLPVFINSG
- percentage of input material that bound to PPARγ [5]: 18%

Continued, values first:

- ligand dependency of PGC-1 interaction with PPARδ [2]: slight ligand dependency
Molecule: CCCCC[C@H](O)/C=C/[C@@H]1[C@H]2C/C(=C/CCCC(=O)O)C[C@H]2C[C@H]1O [carboprostacyclin]

- ligand dependency of PGC-1 interaction with PPARα [4]: slight ligand dependency
Molecule: CCCCC/C=C\C[C@@H](O)/C=C/C=C/C=C\[C@@H](O)CCCC(=O)O [leukotriene-4]
